# Reference: the NIST ThermoML archive (doi:10.1016/j.fluid.2006.09.019)
# ± gives the expanded uncertainty stated by the source.
# Details: Liquid
compound,measurement,setting,value
COC(=O)CO [methyl hydroxyethanoate],vapor or sublimation pressure,293.23 K,0.4864 ± 0.077 kPa
same,vapor or sublimation pressure,303.17 K,0.8459 ± 0.12 kPa
same,vapor or sublimation pressure,313.27 K,1.409 ± 0.16 kPa
same,vapor or sublimation pressure,323.12 K,2.311 ± 0.18 kPa
same,vapor or sublimation pressure,333.28 K,3.738 ± 0.22 kPa
same,vapor or sublimation pressure,343.26 K,5.905 ± 0.27 kPa
same,vapor or sublimation pressure,353.25 K,9.292 ± 0.36 kPa
